Results reported in patent EP4650353A1 (Shanghai Institute of Materia Medica, Chinese Academy of …, priority 2023, dated 2024).

Legend:
β-arrestin 2 = assay: NanoBiT recruitment of β-arrestin 2 by GLP-1R in HEK293 cells; type: cell-based, human; conditions: endogenous GLP-1 = 100%; Figure 2, n=3
From the text: (§1) The Promega NanoBiT protein-protein reaction system was used to detect the recruitment of β-arrestin 1 and β-arrestin 2 by GLP-1R. The NanoBit Protein-Protein Reaction System was a dual-subunit system based on NanoLuc luciferase that could be used to detect protein-protein interactions in cells. The LgBiT (17.6 kDa) and SmBiT (11 amino acids) subunits were fused to the proteins of interest, respectively. When the proteins of interest interact, the two subunits came into close proximity to form an enzyme with catalytic activity, which could catalyze the luminescence of the luciferase substrate. Firstly, the human GLP-1R gene was connected to the N-terminus of LgBit, the β-arrestin 1/2 gene was cloned to the C-terminus of SmBit, and the fusion protein was introduced into the pcDNA3.0 vector to construct plasmids expressing hGLP-1R-LgBit and SmBit-β-arrestin 1/2 fusion proteins. The hGLP-1R-LgBit plasmid and SmBit-β-arrestin 1 (or SmBit-β-arrestin 2) plasmid were co-transfected into HEK293 cells at a ratio of 1 µg plasmid/2×10^6 cells.

β-arrestin 1 = assay: NanoBiT recruitment of β-arrestin 1 by GLP-1R in HEK293 cells; type: cell-based, human; conditions: endogenous GLP-1 = 100%; Figure 1, n=3
From the text: as §1

[1] = system: hGLP-1 receptor knock-in mice; assay: Long-term administration in high-fat diet fed hGLP-1R mice for weight loss; type: in vivo; conditions: ammonium salt
Procedure: (§2) Genetically engineered hGLP-1R gene knock-in mice, male, 8-10 weeks old, specific pathogen free (SPF) grade, were purchased from Biocytogen Jiangsu Gene Biotechnology Co., Ltd. All experimental animals were housed in the SPF-level environment of the National Compound Sample Library animal room, with a temperature of 24±2°C, a relative humidity of 40-60%RH, an air cleanliness level of 7, and a day and night light-dark cycle of 12h/12h; they were continuously supplied with cobalt-60 radiation-sterilized complete mouse granular feed (Shanghai Shilin Biotechnology Co., Ltd., maintenance feed for rats and mice), and were allowed to drink tap water (sterilized with high-pressure steam) without interruption, and were allowed to drink it freely. The cages were transparent polyetherimide cages (Suzhou Fengshi Experimental Animal Equipment Co., Ltd., CP-8 mouse cages), and the bedding was corn cobs (Tezhou Gumei Agricultural Technology Co., Ltd., used after high-pressure steam sterilization). There were 3-5 animals in each cage, and the cage card indicated the IACUC approval number, experiment number, experiment start time, person in charge, experimenter, animal source, group and animal number. The purchased mice were adapted to this breeding environment for at least 7 days before being used in experiments. The animal use methods in this study were approved by the IACUC Committee of the Shanghai Institute of Materia Medica.
The mice were weighed every day, and 24 hours after the last administration, the body fat and muscle content of the mice were detected using a Bruker desktop nuclear magnetic resonance spectrometer (model LF90II). • (4) Experimental results

hGLP-1R transgenic mice = assay: Hypoglycemic effect of compound 76-1 (oral glucose tolerance test); type: in vivo
Procedure: Mouse model: hGLP-1R transgenic mice, 6 female mice per experimental group.
Experimental procedure: The mice were starved overnight, and the blood sugar in the tail of the mice was measured. 30 minutes after oral administration, the blood sugar was measured again as the blood sugar at zero point. Then, 2g/kg of sugar was given orally. 15min, 30min, 60min, and 90min after sugar administration, the blood sugar was measured using a blood glucose meter.

[2] = system: hGLP-1 receptor knock-in mice; assay: Mouse food intake suppression experiment (compound 76-1); type: in vivo; conditions: 10 or 30 mg/kg oral
Procedure: as §2, with “The animal use methods in this study were approved by the IACUC Committee of the Shanghai Institute of Materia Medica.” left out

human GLP-1 receptor = molecular target: T1, human GLP-1 receptor (Homo sapiens, UniProt P43220); assay: GLP-1 receptor-mediated agonist activity: cAMP level in hGLP-1R/HEK293 cell line (HTRF); type: cell-based; conditions: cAMP levels in hGLP-1R/HEK293 cell line; Table 1; read-out: determined EC50
T1 construct: HA (N); expressed in transfected cells
T1 sequence (P43220 24-463): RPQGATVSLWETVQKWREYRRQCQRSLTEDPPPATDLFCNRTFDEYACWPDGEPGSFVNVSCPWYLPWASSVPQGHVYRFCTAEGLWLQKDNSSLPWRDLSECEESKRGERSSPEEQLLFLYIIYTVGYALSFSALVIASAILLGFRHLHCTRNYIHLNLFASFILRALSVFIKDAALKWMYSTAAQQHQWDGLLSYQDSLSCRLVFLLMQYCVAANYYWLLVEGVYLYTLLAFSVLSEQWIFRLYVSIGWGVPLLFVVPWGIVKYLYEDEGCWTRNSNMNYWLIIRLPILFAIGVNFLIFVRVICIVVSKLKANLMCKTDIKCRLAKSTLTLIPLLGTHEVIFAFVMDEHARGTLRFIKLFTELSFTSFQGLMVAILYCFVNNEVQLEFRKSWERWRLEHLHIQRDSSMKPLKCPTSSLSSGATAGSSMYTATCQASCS
Procedure: The hGLP-1R/HEK293 cells were digested, centrifuged and resuspended in culture medium (DMEM+0.2% BSA, m/v), and the cell density was adjusted to 2×10^5 cells/mL. IBMX (3-isobutyl-1-methylxanthine, final concentration of 0.5 mM) was added to the cell suspension and added to a 384-well plate at 5 µL (1×10^3 cells)/well. The compound was dissolved in DMSO to prepare a stock solution with a concentration of 10 mM. The experiment started with a concentration of 100 µM which was diluted 10 times in a series of 7 dilution points, with the 8th point being DMSO. 2 µL of the test compound of different concentrations was added to 98 µL of culture medium, shaken and mixed, 5 µL was taken and added to a 384-well plate (final concentration of the test compound was 0-100 nM, final concentration of DMSO was 1%, v/v), which was then incubated in the incubator (37°C, 5% CO2) in the dark for 30 min, then 10 µL of cAMP detection reagent (LANCE Ultra cAMP Detecion Kit, PerkinElmer, #TRF0264) was added, mixed well, and reacted at room temperature in the dark for 1 h. After the reaction was completed, the HTRF signal was read using the Envision 2104 multi-function microplate reader. All samples were tested in triplicate wells, and the ratio of the acceptor-donor excitation signal in each single well was calculated using the formula Ratio = Signal 665nM/Signal 620nM. The HTRF signal ratio and the corresponding compound concentration were analyzed and processed using GraphPad Prism 8 software, and the EC50 value of the compound was obtained by fitting the S-type dose-response curve and calculating.

Row | EC50 (human GLP-1 receptor) | Compound | maximum agonistic effect (Emax) recruiting β-arrestin 2 (β-arrestin 2) | maximum agonistic effect (Emax) recruiting β-arrestin 1 (β-arrestin 1) | weight gain of HFD-fed mice ([1]; 30 mg/kg by gavage once a day, 15 days) | reduce body weight compared with the blank control group ([1]; 30 mg/kg once a day, after 15 days of administration, HFD) | body fat and lean (muscle) content change trend in HFD mice ([1]; 30 mg/kg, after 15 days of administration) | area under the blood glucose curve (AUC) (hGLP-1R transgenic mice; ammonium salt, 0.1, 0.3 mg/kg oral) | blood glucose level (hGLP-1R transgenic mice; ammonium salt, 0.1, 0.3 mg/kg oral, 30 min before 2 g/kg sugar) | effective dose (hGLP-1R transgenic mice; ammonium salt, oral, oral glucose tolerance test) | effect on food intake compared with positive control PF-06882961 ammonium salt at the same dose [2] | food intake ([2]; ammonium salt, within 0 to 12 hours, fasted 6 h)
1 |  | CC[C@H](C)[C@H](NC(=O)[C@H](Cc1ccccc1)NC(=O)[C@H](CCC(=O)O)NC(=O)[C@H](CCCCN)NC(=O)[C@H](C)NC(=O)[C@H](C)NC(=O)[C@H](CCC(N)=O)NC(=O)CNC(=O)[C@H](CCC(=O)O)NC(=O)[C@H](CC(C)C)NC(=O)[C@H](Cc1ccc(O)cc1)NC(=O)[C@H](CO)NC(=O)[C@H](CO)NC(=O)[C@@H](NC(=O)[C@H](CC(=O)O)NC(=O)[C@H](CO)NC(=O)[C@@H](NC(=O)[C@H](Cc1ccccc1)NC(=O)[C@@H](NC(=O)CNC(=O)[C@H](CCC(=O)O)NC(=O)[C@H](C)NC(=O)[C@@H](N)Cc1c[nH]cn1)[C@@H](C)O)[C@@H](C)O)C(C)C)C(=O)N[C@@H](C)C(=O)N[C@@H](Cc1c[nH]c2ccccc12)C(=O)N[C@@H](CC(C)C)C(=O)N[C@H](C(=O)N[C@@H](CCCCN)C(=O)NCC(=O)N[C@@H](CCCNC(=N)N)C(N)=O)C(C)C [GLP-1] | 100% | 100% |  |  |  |  |  |  |  | 
2 | 1.6 pM | [2H]C([2H])([2H])C([2H])([2H])Oc1cc(C(=O)O)cc2c1nc(CN1CCN(c3cccc4c3O[C@@](C)(c3ccc(Cl)cc3F)O4)C=N1)n2C[C@@H]1CCO1 [Compound 76-1, 2-((4-((S)-2-(4-chloro-2-fluorophenyl)-2-methylbenzo[d][1,3]dioxol-4-yl)-5,6-dihydro-1,2,4-triazin-1(4H)-yl)methyl)-4-(ethoxy-d5)-1-(((S)-oxetan-2-yl)methyl)-1H-benzo[d]imidazole-6-carboxylic acid] |  |  | effectively inhibit the weight gain | 20.4% | effectively inhibit this change trend | dose-dependently reduce | dose-dependently reduce | ≤ 0.1 mg/kg | better than the positive control PF-06882961 ammonium salt | significantly inhibit the food intake
